Patent US11890279B2, “Quinolines that modulate SERCA and their use for treating disease” (Neurodon Corporation, priority 2020, dated 2024)

Tests used:
6-OHDA-lesioned rats = assay: Behavioral tests in the 6-OHDA-lesioned rat model of Parkinson's disease; format: in vivo; details: 10 mg/kg IP once daily
From the text: Behavioral tests in the 6-hydroxydopamine (6-OHDA)-lesioned rat model of Parkinson's disease. Male Wistar rats were trained for both the stepping and initiation time (IT) tests 6 days before treatment with 6-OHDA or NaCl (day −6). 5 days before treatment with 6-OHDA, animals from groups 1 to 3 were given vehicles [NaCl or a mixture of DMSO (10%)/tween 80 (10%)/water (80%)] once daily for 16 days. […] All the treatments were given via the IP route, once daily, Sunday excluded. Surgery was performed on DO under ketamine (50 mg/kg) and xylazine (10 mg/kg). Animals received a unilateral injection of 6-OHDA, 6 μl (sigma Aldrich) in the left substantia nigra pars compacta. During surgery, local analgesia was achieved using subcutaneous injections of lidocaine. At the end of surgery, animals were treated with buprenorphine (0.05 mg/kg, S.C.). […] For the IT test, only one of the two forelimbs was left free to move and the time that is necessary to initiate the movement toward the plane surface was recorded, using 180 sec as break-off point. […] In the stepping test, the rat was held by the experimenter and only one of the two forelimbs was left free to move above a plane surface. The other hand fixed the forelimb not to be monitored with one paw touching the table. The animal was then be moved slowly forward by the experimenter. The number of adjusting steps was counted for the right paw. […] In the cylinder test, animals were placed in a Plexiglas cylinder and, immediately, videotaped for 15 min. During this time, the numbers of contacts made on the cylinder wall with both the ipsilateral, the contralateral, and the two paws simultaneously (double contacts) were recorded and then expressed as a percentage of the total number of contacts.

[1] = tested on: rabbit monoamine transporter; assay: Selectivity panel of 164 targets; details: 10 μM in duplicate; one of only 4 hits among 164 targets
From the text: (§1) The methods used here for each target were adapted from the scientific literature to maximize reliability and reproducibility.

[2] = target: human nerepinephrine (NET) transporter (Homo sapiens (Human), UniProt P23975); assay: Selectivity panel of 164 targets; details: 10 μM in duplicate; one of only 4 hits among 164 targets
From the text: as §1

human adenosine A2A = human adenosine A2A (Homo sapiens (Human), UniProt P29274); assay: Selectivity panel of 164 targets; details: 10 μM in duplicate; one of only 4 hits among 164 targets
human adenosine A2A, sequence (P29274 whole entry): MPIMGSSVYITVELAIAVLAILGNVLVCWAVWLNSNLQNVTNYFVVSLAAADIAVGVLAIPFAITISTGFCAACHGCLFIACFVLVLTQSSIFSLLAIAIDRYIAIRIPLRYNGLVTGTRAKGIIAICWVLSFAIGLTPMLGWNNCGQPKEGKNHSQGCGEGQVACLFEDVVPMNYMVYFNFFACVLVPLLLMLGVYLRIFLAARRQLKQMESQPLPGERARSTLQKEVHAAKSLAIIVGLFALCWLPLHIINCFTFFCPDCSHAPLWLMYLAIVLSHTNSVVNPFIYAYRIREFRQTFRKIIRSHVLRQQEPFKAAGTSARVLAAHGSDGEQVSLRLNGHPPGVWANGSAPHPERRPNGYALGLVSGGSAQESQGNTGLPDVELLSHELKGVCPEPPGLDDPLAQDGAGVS
From the text: as §1

N2a cells = assay: Protection against thapsigargin (TG)-induced cell death, N2a; format: cell-based, mouse; details: compound 20 μM; thapsigargin 1 μM; 24 hrs
Outline: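 Cells pretreated with 20 μM compound for 2 h, then thapsigargin (15 μM HEK293, 1 μM N2a) for 24 h to induce ER stress. Viability by AlamarBlue fluorescence at 2 h as % RFU of control, binned A–D by % cell rescue.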

[3] = tested on: HeLa cells overexpressing BI-1; assay: Effect of a SERCA agonist on [Ca2+]ER (ER cameleon); format: cell-based; details: 24 hrs treatment, ER cameleon YFP/CFP
Procedure: To directly measure ER Ca^2+ content, a genetically encoded Ca^2+ indicator, ER cameleon, was used. HeLa cells were transfected with ER-cameleon encoding plasmid for 2 days before analysis. Cells were treated with a test compound for 24 hrs and imaged in Ca^2+-free HBSS upon addition of thapsigargin to deplete ER stores. Emission ratio imaging of the ER cameleon was accomplished using a 430/24 excitation filter, 450-nm dichroic mirror, and two emission filters (475/40 for CFP and 535/25 for YFP). The fluorescence ratio of YFP/CFP is a measure of relative ER Ca^2+ levels.

[4] = target: human serotonin (5-hydroxytryptamine) 5-HT2B (Homo sapiens (Human), UniProt P41595); assay: Selectivity panel of 164 targets; details: 10 μM in duplicate; one of only 4 hits among 164 targets
human serotonin (5-hydroxytryptamine) 5-HT2B, sequence (P41595 whole entry): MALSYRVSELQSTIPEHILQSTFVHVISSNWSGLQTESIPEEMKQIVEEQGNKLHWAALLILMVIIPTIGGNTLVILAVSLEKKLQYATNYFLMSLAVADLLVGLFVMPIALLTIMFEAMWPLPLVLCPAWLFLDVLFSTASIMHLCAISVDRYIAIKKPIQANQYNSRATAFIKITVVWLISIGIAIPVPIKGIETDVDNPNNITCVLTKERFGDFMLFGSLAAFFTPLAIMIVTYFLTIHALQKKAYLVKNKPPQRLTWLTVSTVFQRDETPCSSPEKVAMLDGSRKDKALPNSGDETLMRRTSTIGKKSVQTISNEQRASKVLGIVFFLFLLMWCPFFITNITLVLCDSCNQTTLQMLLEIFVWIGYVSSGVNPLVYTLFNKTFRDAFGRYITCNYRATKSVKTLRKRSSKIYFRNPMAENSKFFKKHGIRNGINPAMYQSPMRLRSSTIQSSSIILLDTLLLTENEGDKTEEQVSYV
From the text: The methods used here for each target were adapted from the scientific literature to maximize reliability and reproducibility. Reference standards were run as an integral part of each essay to ensure the validity of the results obtained.

SERCA (SR vesicles) = assay: Activation of SERCA, increase in Vmax; format: biochemical
CSM14.1 cells = assay: ER stress cell survival assay (thapsigargin); format: cell-based; details: compound 2 μM; about 15 μM thapsigargin; CSM14.1 cells;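 further: survival read as CellTiter-Glo luminescence after overnight incubation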

Row | SMILES | initiation time (IT test) (6-OHDA-lesioned rats) | number of adjusting steps (stepping test) (6-OHDA-lesioned rats) | number of contacts (cylinder test) (6-OHDA-lesioned rats) | response against rabbit monoamine transporter [1] | response against human NET transporter [2] | response against human adenosine A2A (human adenosine A2A) | N2a Cells (TG-induced) cell rescue (N2a cells) | [Ca^2+]ER [3] | response against human 5-HT2B [4] | Increase in Vmax at 10 μM (SERCA (SR vesicles)) | Cell Survival (CSM14.1 cells)
1 | Cc1ccc2cccc(NC(=O)c3ccc(OC(C)C)cc3)c2n1 [Compound A12, 4-Isopropoxy-N-(2-methylquinolin-8-yl)benzamide] | reduced | increased | increased | significant responses | significant responses | significant responses | B (B represents a value between 10% to 50% cell rescue) | significantly restored | significant responses | A′ (A′ represents an increase greater than 50%) | –
2 | Cc1ccc2cccc(NC(=O)c3ccc(N(C)C)cc3)c2n1 [Compound C18, 4-N,N-Dimethylamino-N-(2-methylquinolin-8-yl)benzamide] | – | – | – | – | – | – | A (A represents a value greater than 50% cell rescue) | – | – | – | B (B represents a value between 10% and 50%)
